How the values were obtained:
C. difficile [1] = test: CAT-GxD re-analysis of public C. difficile gene expression datasets (heatmap, PCA, STRING network, KEGG PTS pathway overlay) after DCA or succinate exposure; assay type: cell-based, Clostridioides difficile; conditions: for most of the Glc family phosphorylation and L-ascorbate phosphorylation (KEGG PTS pathway): unchanged in Δsig54
Description: Typically, specific gene expression datasets and protein quantitation datasets for the selected target organism are collected and made available. In an exemplary form, C. difficile-specific gene expression datasets and protein quantitation datasets were collected from GEO database and ProteomeXchange databases, respectively. An SQL database was generated using RSQlite (version 2.3.4) (25) to incorporate the 56 nonredundant GEO transcriptomics datasets and 8 quantitative proteomic datasets. GEO subseries datasets already available in their respective superseries dataset were excluded. Quantitative total proteomic datasets were included; those focused on post-translational modification studies were excluded. To integrate and normalize the datasets, gene IDs were matched to the Ensembl stable IDs of the widely accepted C. difficile 630 reference strain using BLASTp, using protein identity and gene position comparisons and given the NCBI format CD630. Pre-computed log2 ratios without any gene duplication were imported as is. Studies with replicate log2 ratios assigned for a gene ID (common in microarray experiments due to replicate spots) were solved by computing the median log2 ratio. Two-channel microarray experiments with duplicate ratios assigned to a gene were solved by computing the average of the complementary ratios then log2 transformed. Reads Per Kilobase Million (RPKM) of raw RNASeq data were computed. For datasets without any computed ratios, log2 ratios were calculated for each treatment vs. control, and median normalization was performed. Gene classifications (described in Input and Data Filtering) were compiled to provide a comprehensive and robust search.
To glean additional insight into the interactions between the remaining 26 genes, the analysis was transitioned to the STRING database by clicking on the STRING icon at the top left of the page (expression information, however, will not ‘carry over’). […] The least number of nodes with the higher network association scores were selected to bridge the clusters. […] Next, the 5 bridging nodes and rpoN/sigL/sig54 were added to the 26 gene set and re-entered in the CAT-GXD's ‘Search’ bar. […] In order to link the separate networks, the 26 genes were sent to the STRING database by clicking on the STRING icon.
In the pathway tab in CAT-GxD, gene expression data for specific conditions can be overlaid on selected KEGG pathways.

C. difficile [2] = conditions: cited from earlier work
C. difficile [3] = conditions: cited from earlier work; remark: listed apart in the source
[4] = C. difficile exposed to 240 μM DCA for 48 hours
[5] = DCA exposure, compared with succinate exposure
[6] = C. difficile exposed to 80 mM succinate for 24 hours
[7] = C. difficile treated with 80 mM succinate for 24 hours

SMILES	SigL/Sig54/RpoN expression (C. difficile [1]; [4])	expression of central bridging node pheA (C. difficile [1]; [4])	genes of cluster [2] downregulated (C. difficile [1]; [4])	number of the 27 Δsig54 downregulated genes also downregulated (C. difficile [1]; [4])	bridging nodes downregulated (C. difficile [1]; C. difficile exposed to 240 μM DCA for 48 hours, bridging nodes ptsH, pheA, pfo, CD3092, CD3640)	expression of cluster [2] bridging node ptsH (C. difficile [1]; DCA exposure (240 μM, 48 hours))	mannitol (mtlF) phosphorylation (KEGG PTS pathway) (C. difficile [1]; [5])	sorbitol phosphorylation (KEGG PTS pathway) (C. difficile [1]; [5])	most of the Glc family phosphorylation and L-ascorbate phosphorylation (KEGG PTS pathway) (C. difficile [1]; DCA ratio (240 μM, 48 hrs))	biofilm formation in C. difficile (C. difficile [2])	expression of bridging node pfo of clusters [1] and [3] (C. difficile [1]; [6])	expression of central bridging node pheA (C. difficile [1]; [6])	expression of cluster [2] bridging node ptsH (C. difficile [1]; [6])	SigL expression (C. difficile [1]; [7])	genes (clusters [1] and [3]) displaying contrasting expression patterns relative to Δsig54 (C. difficile [1]; [7])	genes (of the 10 of cluster [2]) with similar downregulation patterns as with Sig54 loss (C. difficile [1]; [7])	cellobiose, fructoselysine and sorbitol phosphorylation (KEGG PTS pathway) (C. difficile [1]; succinate exposure, compared with DCA exposure)	most of the Glc family phosphorylation and L-ascorbate phosphorylation (KEGG PTS pathway) (C. difficile [1]; succinate ratio (24 hrs biofilm))	biofilm thickness compared with DCA-induced biofilm (C. difficile [2]; succinate versus DCA)	mtlF expression in succinate induced biofilms (C. difficile [3])
C[C@H](CCC(=O)O)[C@H]1CC[C@H]2[C@@H]3CC[C@@H]4C[C@H](O)CC[C@]4(C)[C@H]3C[C@H](O)[C@]12C [DCA]	downregulated	upregulated	3 of 10	19 of the 27	4 of the 5	downregulated	increased	decreased	downregulated	induce biofilm formation										
O=C(O)CCC(=O)O [succinate]										induce biofilm formation	upregulated	upregulated	downregulated	upregulation	13 of 27	7 of the 10	increased	downregulated	significantly thicker biofilm	downregulation
